We go through eight molecules from patent US6645736B2, “Calcium independent cytosolic phospholipase A2/B enzymes” (Genetics Institute, LLC, priority 1994, dated 2003).

In data set [1] the target is T1, calcium independent cytosolic phospholipase A2/B (Cricetulus griseus, UniProt A0A3L7I2I8).
T1 construct: purified from the cytosol of Chinese hamster ovary (CHO) cells; endogenous in cells; host or cells: CHO cells (cytosol; Mono P / heparin / size-exclusion fractions)
T1 sequence (A0A3L7I2I8 1-752 isoform A0A3L7I2I8-2): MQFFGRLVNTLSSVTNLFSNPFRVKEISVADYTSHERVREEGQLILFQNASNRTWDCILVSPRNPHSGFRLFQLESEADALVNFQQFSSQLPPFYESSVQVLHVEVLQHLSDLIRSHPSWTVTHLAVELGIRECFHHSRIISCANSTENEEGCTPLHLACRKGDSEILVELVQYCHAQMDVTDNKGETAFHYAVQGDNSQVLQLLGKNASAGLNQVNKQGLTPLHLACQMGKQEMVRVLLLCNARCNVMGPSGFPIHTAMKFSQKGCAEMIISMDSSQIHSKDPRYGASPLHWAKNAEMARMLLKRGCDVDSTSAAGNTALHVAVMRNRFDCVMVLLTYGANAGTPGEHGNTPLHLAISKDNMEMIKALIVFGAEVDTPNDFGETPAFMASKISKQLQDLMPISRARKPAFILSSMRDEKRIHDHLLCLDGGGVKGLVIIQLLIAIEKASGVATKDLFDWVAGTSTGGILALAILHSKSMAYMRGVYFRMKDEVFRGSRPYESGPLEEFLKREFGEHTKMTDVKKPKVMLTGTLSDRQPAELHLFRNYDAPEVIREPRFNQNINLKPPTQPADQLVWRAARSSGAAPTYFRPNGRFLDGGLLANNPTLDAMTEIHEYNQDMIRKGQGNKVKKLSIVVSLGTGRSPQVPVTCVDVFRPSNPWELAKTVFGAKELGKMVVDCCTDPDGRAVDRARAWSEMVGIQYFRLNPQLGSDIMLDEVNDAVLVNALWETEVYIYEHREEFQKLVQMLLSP
Description: Phospholipase hydrolysis assays, format not specified. It is filed as biochemical, Chinese hamster. The procedure: 1. sn-2 Hydrolysis Assays
(§1) A) Liposome: The lipid, e.g. 1-palmitoyl-2-[^14C]arachidonyl-sn-glycero-3-phosphocholine (PAPC), 55 mCi/mmol, was dried under a stream of nitrogen and solubilized in ethanol. The assay buffer contained 100 mM Tris-HCl pH 7, 4 mM EDTA, 4 mM EGTA, 10% glycerol and 25 μM of labelled PAPC, where the volume of ethanol added was no more than 10% of the final assay volume. The reaction was incubated for 30 minutes at 37° C. and quenched by the addition of two volumes of heptane:isopropanol:0.5M sulfuric acid (105:20:1 v/v). Half of the organic was applied to a disposable silica gel column in a vacuum manifold positioned over a scintillation vial, and the free arachidonic was eluted by the addition of ethyl ether (1 ml). The level of radioactivity was measured by liquid scintillation.
B) Mixed Micelle Basic: The lipid was dried down as in (A) and to this was added the assay buffer consisting of 80 mM glycine pH 9, 5 mM CaCl2 or 5 mM EDTA, 10% or 70% glycerol and […] triton X-100. The mixture was then sonicated for 30-60 seconds at 4° C. to form mixed micelles.
C) Mixed Micelle Neutral: As for (B) except 100 mM Tris-HCl pH 7 was used instead of glycine as the buffer.
Sn-1 hydrolysis assays are performed as described above for […], but using phospholipids labelled at the sn-1 substituent, e.g. 1-[^14C]-palmitoyl-2-arachidonyl-sn-glycero-3-phophocholine.

Data set [2] has as its target T1, calcium independent cytosolic phospholipase A2/B. Nature of the data set: Liposome assay (Example 3A). The format is biochemical, Chinese hamster. As to conditions: assay of Example 3A (liposome). The procedure: as §1, with “The reaction was incubated for 30 minutes at 37° C. and quenched by the addition of two volumes of heptane:isopropanol:0.5M sulfuric acid (105:20:1 v/v).” left out
Variations on this assay replace EDTA and EGTA with 10 mM CaCl2.

The target in another data set is T2, cPLA2 (Homo sapiens, UniProt P47712).
T2 sequence (P47712 1-749): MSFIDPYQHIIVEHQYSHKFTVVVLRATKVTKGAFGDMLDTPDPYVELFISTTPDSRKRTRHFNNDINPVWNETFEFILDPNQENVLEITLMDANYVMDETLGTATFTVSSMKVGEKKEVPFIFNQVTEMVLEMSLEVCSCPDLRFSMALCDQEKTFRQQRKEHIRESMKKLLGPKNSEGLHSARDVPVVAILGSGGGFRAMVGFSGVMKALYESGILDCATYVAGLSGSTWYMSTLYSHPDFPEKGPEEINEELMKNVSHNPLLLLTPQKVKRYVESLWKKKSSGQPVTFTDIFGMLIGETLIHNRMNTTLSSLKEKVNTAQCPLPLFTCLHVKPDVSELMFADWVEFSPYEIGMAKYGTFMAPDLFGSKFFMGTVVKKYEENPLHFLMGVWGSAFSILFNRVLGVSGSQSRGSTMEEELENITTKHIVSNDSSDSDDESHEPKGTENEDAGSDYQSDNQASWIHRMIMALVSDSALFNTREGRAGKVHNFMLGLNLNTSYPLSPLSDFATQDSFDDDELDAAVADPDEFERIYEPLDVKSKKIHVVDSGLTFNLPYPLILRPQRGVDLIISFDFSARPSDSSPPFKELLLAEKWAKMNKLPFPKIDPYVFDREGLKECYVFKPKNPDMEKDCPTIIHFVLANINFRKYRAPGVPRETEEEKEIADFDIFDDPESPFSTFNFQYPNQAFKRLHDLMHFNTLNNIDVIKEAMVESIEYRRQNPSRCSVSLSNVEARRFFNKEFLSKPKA
Conditions: comparison enzyme; cited from earlier work.

For `C[C@H](CCC(=O)NCCC[N+](C)(C)CCCS(=O)(=O)[O-])[C@H]1CC[C@H]2[C@@H]3[C@H](O)C[C@@H]4C[C@H](O)CC[C@]4(C)[C@H]3C[C@H](O)[C@]12C` [CHAPS], the “inactivation of the enzyme by detergents” value in data set [1] is recorded as “inactivated”.

In the case of `Nc1ncnc2c1ncn2[C@@H]1O[C@H](COP(=O)(O)OP(=O)(O)OP(=O)(O)O)[C@@H](O)[C@H]1O` [adenosine triphosphate], the “effect on enzyme activity” value in data set [2] is given as “not stimulated”.

Turning to `[Ca+2]` [calcium], the “effect on enzyme activity” value in data set [1] (in all assays) is “suppressed”.

In the case of `CCCCCCCCO[C@@H]1O[C@H](CO)[C@@H](O)[C@H](O)[C@H]1O` [octyl glucoside], in data set [1], the “inactivation of the enzyme by detergents” value is reported as “inactivated”.

As for `NC(N)=O` [urea], the “denaturant concentration that inactivates the enzyme” value in data set [1] (high concentration denaturants) was “above 3 M”.

For the molecule triton X-100, the “effect on enzyme activity” value in data set [2] is recorded as “suppressed”.

B1: cPLA2: 110 kD calcium dependent cytosolic phospholipase A2 of U.S. Pat. No. 5,322,776 (protein, UniProt P47712 1-749, looked up)
Cytosolic phospholipase A2: T2 sequence (P47712 1-749)
For B1, the pH optimum result with cPLA2 is reported as “greater than 8”.

B2: calcium independent phospholipase: 86 kD calcium independent cytosolic phospholipase enzyme purified from the cytosol of CHO cells, SEQ ID NO:2 (protein)
chain: T1 sequence (A0A3L7I2I8 1-752 isoform A0A3L7I2I8-2)
For B2, in data set [1], the pH optimum is given as 6. In addition, the “initial rate of hydrolysis, sn-2 position higher than sn-1” value in data set [1] (PAPC with either palmitoyl or arachidonyl labelled with 14C) is given as 2-3 fold.
